From PubChem BioAssay AID1627 (PCMD, 2009)
Records with an inconclusive call do not appear. Active and inactive are the calls of the source. How the calls were made is not given here.

target: Procathepsin L (Homo sapiens) (UniProt P07711); test: CTSL inhibitor potency, thiol present – biochemical, cysteine present, dose response (AID 1627); conditions: purified cathepsin L, fluorogenic substrate, with cysteine
Sequence (P07711 114-288 limits assumed): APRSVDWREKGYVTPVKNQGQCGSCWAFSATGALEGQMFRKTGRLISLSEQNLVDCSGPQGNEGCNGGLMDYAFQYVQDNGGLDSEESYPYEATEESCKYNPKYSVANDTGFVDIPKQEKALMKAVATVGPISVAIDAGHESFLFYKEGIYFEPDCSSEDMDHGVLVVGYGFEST
Sequence (P07711 292-333 limits assumed): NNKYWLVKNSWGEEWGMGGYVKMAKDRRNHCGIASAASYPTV

| Compound | IC50 |
| --- | --- |
| N#CC1=C(N)Oc2c(sc3ccccc23)C1c1ccco1 (stereo not given) | > 50 µM (inactive) |
| CC1=C(C(=O)Nc2ccc(F)cc2)C(c2cccc(C)c2)n2nc(CCCO)nc2N1 (stereo not given) | > 50 µM (inactive) |
| COc1ccc(OC)c(C2C(C#N)=C(N)Oc3cc(C)n(Cc4ccccn4)c(=O)c32)c1 (stereo not given) | > 50 µM (inactive) |
| CCCCc1[nH]nc2c1C1(C(=O)N(CC)c3ccccc31)C(C#N)=C(N)O2 (stereo not given) | > 50 µM (inactive) |
| CN1CCc2c(sc3ncn4nc(-c5ccccc5O)nc4c23)C1 | 32 µM |
| CCCCOc1ccc(C2C3CN(C(=O)OCC)CC=C3C(C#N)=C(N)C2(C#N)C#N)cc1OC (stereo not given) | > 50 µM (inactive) |
| CC(=O)Nc1nc2n(n1)C(c1ccc(F)cc1)C=C(c1ccccc1)N2 (stereo not given) | > 50 µM (inactive) |
| CC(=O)c1c(O)n(C)c(=S)n(-c2ccccc2)c1=O | > 50 µM (inactive) |
| O=S(=O)(/N=S1/CC=CCN1S(=O)(=O)c1ccccc1)c1ccccc1 (stereo not given) | > 50 µM (inactive) |
| Nc1nc2n(n1)C1(CCCCC1)C1=C(CCCC1)N2 | > 50 µM (inactive) |
